For assay [1], the system named is mononuclear phagocytes. Description: ApoA-I mediated cellular cholesterol efflux (14C-cholesterol, E-LDL loaded monocytes). Format: cell-based, Human. The following applies: men and women, percent of basal unstimulated efflux. Here is the method:
Cellular Lipid Efflux. Human peripheral blood cells were isolated from lithium-heparin treated blood samples of adult, healthy volunteers. The peripheral blood mononuclear cell fraction was separated by density gradient centrifugation over Ficoll-Histopaque […] (Sigma). Cells positive for CD2, CD7, CD16, CD19 and CD56 were removed by appropriate magnetic beads (Dynal) leaving > 80% pure monocytes. Isolated monocytes were then cultured at a density of 1.5x10^5 cells/mL in polystyrene culture dishes (100x15mm Petri dish, Falcon) in a serum-free macrophage medium (Macrophage-SFM, Gibco Life Technologies) supplemented with 50ng/mL human recombinant M-CSF (R&D Systems). After an overnight incubation cells were cholesterol loaded for 24 hrs by addition of enzymatically modified LDL (E-LDL; 40 µg/ml), which was prepared as previously described (31). […] Lipids were extracted by liquid extraction according to the method of Bligh and Dyer (13). ^3H and ^14C radioactivities of the total lipid extracts were measured by liquid scintillation counting in order to distinguish between ^3H labeled phospholipids and ^14C-cholesterol. Lipid efflux was calculated as percentage of disintegrations per minute (dpm) in medium divided by the sum of dpm recovered from medium and cells. […]

In assay [2] the test system is mononuclear phagocytes. Description: ApoA-I mediated cellular phospholipid efflux (3H-choline labelled phospholipids). Format: cell-based, Human. The following applies: men and women, percent of basal unstimulated efflux. Here is the method: Cellular Lipid Efflux. Human peripheral blood cells were isolated from lithium-heparin treated blood samples of adult, healthy volunteers. The peripheral blood mononuclear cell fraction was separated by density gradient centrifugation over Ficoll-Histopaque […] (Sigma). Cells positive for CD2, CD7, CD16, CD19 and CD56 were removed by appropriate magnetic beads (Dynal) leaving > 80% pure monocytes. Isolated monocytes were then cultured at a density of 1.5x10^5 cells/mL in polystyrene culture dishes (100x15mm Petri dish, Falcon) in a serum-free macrophage medium (Macrophage-SFM, Gibco Life Technologies) supplemented with 50ng/mL human recombinant M-CSF (R&D Systems). After an overnight incubation cells were cholesterol loaded for 24 hrs by addition of enzymatically modified LDL (E-LDL; 40 µg/ml), which was prepared as previously described (31). The incubation medium was further supplemented with ^14C-cholesterol (1.5 µCi/ml) and ^3H-choline (10µCi/ml) in order to label cellular cholesterol and choline containing phospholipids. In a subset of experiments cells were stimulated with 10 µM forskolin during the labeling period. After 24 hrs monocytes were washed and incubated for 17 hrs with or without 10 µg/ml ApoA-I (Sigma) in macrophage medium containing 0.1 % bovine serum albumin and 50ng/mL M-CSF. After incubation the media were removed and centrifuged at 800 x g to precipitate any detached cells. Cells were lysed in 0.2% SDS. Lipids were extracted by liquid extraction according to the method of Bligh and Dyer (13). ^3H and ^14C radioactivities of the total lipid extracts were measured by liquid scintillation counting in order to distinguish between ^3H labeled phospholipids and ^14C-cholesterol. Lipid efflux was calculated as percentage of disintegrations per minute (dpm) in medium divided by the sum of dpm recovered from medium and cells. The ApoA-I specific efflux is expressed a percent of basal unstimulated efflux observed in serum-free macrophage medium without ApoA-I.

Assay [3] concerns IL-1β secretion. Kind of assay: IL-1β processing and secretion. Format: cell-based. The following applies: result in words.
Assay [4] has as its system neutral sphingomyelinase. Description: Ceramide formation from sphingomyelin. Format: cell-based. The following applies: result in words.
The subject of assay [5] is human fibroblasts. Description: Cell cycle arrest in fibroblasts. The assay is classed as cell-based. The following applies: result in words.

The structures appear in SMILES notation.

For the molecule `C=C[C@@]1(C)CC(=O)[C@]2(O)[C@@]3(C)[C@@H](O)CCC(C)(C)[C@@H]3[C@H](O)[C@H](OC(C)=O)[C@@]2(C)O1` [forskolin], the “Cholesterol efflux: ApoA-I [10 µg/ml]+ 24 h pretreatment with forskolin [10 µM]” value in assay [1] (596A/A) was 126.7 ± 37.4%; in assay [1] (wt/wt 596G/G, 2589A/A) it was 121.8 ± 16.4%. Also, the “Phospholipid efflux: ApoA-I [10 µg/ml]+ 24 h pretreatment with forskolin [10 µM]” value turned out to be 136.7 ± 12.8% in assay [2] (596A/A); 124.5 ± 25.8% in assay [2] (2589G/G); 135.4 ± 20.2% in assay [2] (wt/wt 596G/G, 2589A/A).
`COc1ccc(Cl)cc1C(=O)NCCc1ccc(S(=O)(=O)NC(=O)NC2CCCCC2)cc1` [glyburide]: in assay [3], the “Caspase I mediated processing of pro-IL-1β” value is listed as “inhibits” and the “release of mature IL-1β” value was “inhibits”. The “ceramide formation from sphingomyelin mediated by neutral sphingomyelinase” value in assay [4] is recorded as “inhibits”. Also, the “G2-phase cell cycle arrest” value in assay [5] is recorded as “releases human fibroblasts from G2-phase cell cycle arrest”.
